# Test results from patent publication US20210008101A1, “METHODS AND COMPOSITIONS FOR PREVENTING, REDUCING OR ERADICATING TOXICITY CAUSED BY ACETAMINOPHEN (APAP)” (SINEW PHARMA INC., priority 2018, published 2021).
# Entries after “also recorded” stand apart in the source; their conditions may differ.
# How the values were obtained:
# Type in all cases: in vivo, Sprague-Dawley rats
# [1] = system: toxicity (nephrotoxicity and hepatotoxicity) caused by APAP; assay: Overall antidote activity against toxicity caused by APAP (animal model); details: rats given APAP 1,000 mg/kg; summary of Table 1
# Protocol: (§1) Male Sprague-Dawley rats (weighing 220-300 g) were obtained from Professor Dr. Gonzalez of the American Country Health Research Institute (USA), introduces three male and four female mice, pairs voluntarily reproduces. All of the experiments were performed in adherence with the National Institutes of Health Guidelines for the treatment of animals. All of the mice were maintained in a room with air/humidity control and a 12-h light/dark cycle, and allowed access to food and water ad libitum throughout the experiment.
# (§2) In the single dose study of the antidote effect of APAP metabolic enzyme inhibition on APAP-induced nephrotoxicity, rats were randomly divided into 3 treatment groups: (1) a normal control group (NC, n=5), in which normal SD-rats were orally administrated with saline four times a day for multiple doses at a volume of 1 mL/kg; (2) an APAP control group (APAP, n=5), in which normal SD-rats were orally administrated with APAP in saline at dose of 1 g/kg (1,000 mg/kg) for single oral dose administration; (3) an positive control group (NAC, n=5), in which normal SD-rats were orally administrated with APAP and N-acetylcysteine (NAC) in saline at dose of 1 g/kg and 140 mg/kg for single oral dose administration; (4) the various selected antidote test groups (each groups, n=5), in which normal SD-rats were orally administered with APAP in saline at dose of 1,000 mg/kg and e various antidote agents each at dose of less than or equivalent to 200 mg per 60 kg person body weight of single oral dose administration. In addition, according to US FDA Guidance for Industry “Estimating the Maximum Safe Starting Dose in Initial Clinical Trials for Therapeutics in Adult Healthy Volunteers”, the HED (human equivalent dose) for a human adult of 60 kg can be calculated as follows: HED=animal dose (1,000 mg/kg in rats)×human body weight (60 kg)/6.2=9.677g (about 10 g).
# [2] = system: APAP-induced hepatotoxicity; assay: Plasma AST and ALT determination in APAP-induced toxicity animal model; details: SD-rats, mean ± SD
# Protocol: as §1
# In the single dose study […], rats were randomly divided into 3 treatment groups: (1) a normal control group (NC, n=5), in which normal SD-rats were orally administrated with saline four times a day for multiple doses at a volume of 1 mL/kg; (2) an APAP control group (APAP, n=5), in which normal SD-rats were orally administrated with APAP in saline at dose of 1 g/kg (1,000 mg/kg) for single oral dose administration; (3) an positive control group (NAC, n=5), in which normal SD-rats were orally administrated with APAP and N-acetylcysteine (NAC) in saline at dose of 1 g/kg and 140 mg/kg for single oral dose administration; (4) the various selected antidote test groups (each groups, n=5), in which normal SD-rats were orally administered with APAP in saline at dose of 1,000 mg/kg and e various antidote agents each at dose of less than or equivalent to 200 mg per 60 kg person body weight of single oral dose administration. In addition, according to US FDA Guidance for Industry “Estimating the Maximum Safe Starting Dose in Initial Clinical Trials for Therapeutics in Adult Healthy Volunteers”, the HED (human equivalent dose) for a human adult of 60 kg can be calculated as follows: HED=animal dose (1,000 mg/kg in rats)×human body weight (60 kg)/6.2=9.677g (about 10 g).
# (§3) At the end of the treatment, the animals were sacrificed under diethyl ether anesthesia. Blood was collected from the hearts of the mice into heparin tubes, and plasma was separated by centrifugation at 13,000×g for 5 min at 4° C. Aliquots of plasma were transferred to Eppendorf tubes and stored at −80° C. until analysis.
# Plasma enzyme activities (aspartate aminotransferase [AST] and alanine aminotransferase [ALT]) were determined at 37° C. by using a Synchron LXi 725 (Beckman Instruments, Palo Alto, Calif. USA) with kits provided by the manufacturer.
# (§4) All data are represented in mean ± standard deviation (SD) and the results are calculated using ANOVA to determine the significance. Statistical Package of the Social Science program (Version 13, SPSS Inc.) is used for calculations followed by post hoc test to examine the least significant difference for multiple comparisons so as to confirm the significant differences between groups and the average difference between groups was significant p<0.05.
# [3] = system: APAP-induced nephrotoxicity; assay: Serum creatinine and BUN (kidney function) in APAP-induced toxicity animal model; details: SD-rats, mean ± SD
# Protocol: as §1, §2, §3
# Serum creatinine and BUN levels were measured using the commercial kits (BEN) (Biochemical Enterprise, Milano, Italy) CR280 and BK151 in an automatic biochemical analyzer (ChemWell, Palm City, Fla.) at 340 nm and 510 nm, respectively.
# as §4
# [4] = system: APAP-induced renal lesions; assay: Histological examination of kidney (H&E) in APAP-induced toxicity animal model; details: H&E stained kidney section, 200×
# Protocol: as §1, §2
# The kidney groups were fixed in 10% neutral formalin for 48-72 h. Then, tissues were trimmed and processed for a routine histopathological examination. […]
# [5] = APAP 1,000 mg/kg single oral dose plus antidote single oral dose, n=5
# [6] = APAP 1,000 mg/kg oral plus antidote at high dose
# [7] = APAP 1,000 mg/kg oral plus antidote at low dose
# [8] = APAP alone 1,000 mg/kg single oral dose (toxicity control group), n=5
# [9] = APAP alone 1,000 mg/kg single oral dose (toxicity control group), n=5, listed as AAP
smiles,measurement,setting,value
OC[C@H]1O[C@H](O[C@]2(CCl)O[C@H](CCl)[C@@H](O)[C@@H]2O)[C@H](O)[C@@H](O)[C@H]1Cl [Sucralose],Antidote activity against toxicity (nephrotoxicity and hepatotoxicity) caused by APAP,[1],effective in reducing or eradicating toxicity
same,ALT (hepatotoxicity),[2]; [5],82.8 ± 8.4 IU/L
same,AST (hepatotoxicity),[2]; [5],288.4 ± 33.8 IU/L
same,BUN (nephrotoxicity),[3]; [5],33.6 ± 2.7 mg/dL
same,Creatinine (nephrotoxicity),[3]; [5],0.40 ± 0.15 mg/dL
"CC(=O)N[C@@H](CS)C(=O)O [NAC, N-acetylcysteine, reference compound]",ALT (hepatotoxicity),[2]; [5],206.7 ± 20.1 IU/L
same,AST (hepatotoxicity),[2]; [5],423.7 ± 38.1 IU/L
same,"Kidney histology (renal lesions), FIG. 1",[4]; acetaminophen 1 g/kg plus antidote,Mild to moderate degenerations were seen; also recorded: reduced to mild to moderate level
same,BUN (nephrotoxicity),[3]; [5],48.4 ± 9.8 mg/dL
same,Creatinine (nephrotoxicity),[3]; [5],0.64 ± 0.05 mg/dL
O=c1cc(-c2ccc(O)c(O)c2)oc2cc(O)cc(O)c12 [Luteolin],Antidote activity against toxicity (nephrotoxicity and hepatotoxicity) caused by APAP,[1],effective in reducing or eradicating toxicity
same,ALT (hepatotoxicity),[2]; [6],57.1 ± 14.7 IU/L
same,AST (hepatotoxicity),[2]; [6],223.8 ± 15.5 IU/L
same,ALT (hepatotoxicity),[2]; [7],78.9 ± 15.7 IU/L
same,AST (hepatotoxicity),[2]; [7],279.1 ± 35.1 IU/L
same,BUN (nephrotoxicity),[3]; [6],23.7 ± 4.4 mg/dL
same,Creatinine (nephrotoxicity),[3]; [6],0.25 ± 0.07 mg/dL
same,BUN (nephrotoxicity),[3]; [7],31.5 ± 7.3 mg/dL
same,Creatinine (nephrotoxicity),[3]; [7],0.43 ± 0.08 mg/dL
O=c1c(O)c(-c2ccc(O)cc2)oc2cc(O)cc(O)c12 [Kaempferol],Antidote activity against toxicity (nephrotoxicity and hepatotoxicity) caused by APAP,[1],effective in reducing or eradicating toxicity
same,ALT (hepatotoxicity),[2]; [6],82.2 ± 17.6 IU/L
same,AST (hepatotoxicity),[2]; [6],332.2 ± 27.1 IU/L
same,ALT (hepatotoxicity),[2]; [7],179.4 ± 12.9 IU/L
same,AST (hepatotoxicity),[2]; [7],395.6 ± 32.6 IU/L
same,BUN (nephrotoxicity),[3]; [6],31.5 ± 7.6 mg/dL
same,Creatinine (nephrotoxicity),[3]; [6],0.38 ± 0.09 mg/dL
same,BUN (nephrotoxicity),[3]; [7],58.8 ± 7.0 mg/dL
same,Creatinine (nephrotoxicity),[3]; [7],0.70 ± 0.09 mg/dL
OC[C@@H](O)[C@@H](O)[C@H](O)[C@H](O)CO [Mannitol],Antidote activity against toxicity (nephrotoxicity and hepatotoxicity) caused by APAP,[1],effective in reducing or eradicating toxicity
same,ALT (hepatotoxicity),[2]; [5],91.9 ± 8.4 IU/L
same,AST (hepatotoxicity),[2]; [5],365.7 ± 35.5 IU/L
same,BUN (nephrotoxicity),[3]; [5],41.0 ± 2.6 mg/dL
same,Creatinine (nephrotoxicity),[3]; [5],0.56 ± 0.13 mg/dL
O=C1C[C@@H](c2ccc(O)cc2)Oc2cc(O)cc(O)c21 [Nariagenin],Antidote activity against toxicity (nephrotoxicity and hepatotoxicity) caused by APAP,[1],effective in reducing or eradicating toxicity
same,ALT (hepatotoxicity),[2]; [5],63.1 ± 11.6 IU/L
same,AST (hepatotoxicity),[2]; [5],231.1 ± 39.0 IU/L
same,BUN (nephrotoxicity),[3]; [5],36.0 ± 7.8 mg/dL
same,Creatinine (nephrotoxicity),[3]; [5],0.32 ± 0.03 mg/dL
"CC(=O)Nc1ccc(O)cc1 [APAP, N-acetyl-para-aminophenol]",ALT (hepatotoxicity),[2]; [8],382.3±32.1 IU/L
same,AST (hepatotoxicity),[2]; [8],591.0±59.2 IU/L
same,ALT (hepatotoxicity),[2]; [9],382.3 ± 32.1 IU/L
same,AST (hepatotoxicity),[2]; [9],591.0 ± 59.2 IU/L
same,"Kidney histology (renal lesions), FIG. 1",[4]; acetaminophen 1 g/kg alone,"severe renal lesions including necrosis, congestion and extravasation of red blood cells"
same,"Kidney histology (renal lesions), FIG. 1","[4]; acetaminophen 1 g/kg alone, listed as acetaminophen","Severe necrosis, congestion and extravasation of red blood cells were seen"
same,BUN (nephrotoxicity),[3]; [8],87.8 ± 6.6 mg/dL
same,Creatinine (nephrotoxicity),[3]; [8],1.13 ± 0.17 mg/dL
same,BUN (nephrotoxicity),[3]; [9],87.8 ± 6.6 mg/dL
same,Creatinine (nephrotoxicity),[3]; [9],1.13 ± 0.17 mg/dL
